Test results from ChEMBL document CHEMBL4359834 (J Med Chem, 2019).
Activity calls are given as the source filed them. No cut-off for these calls is given here.

Experiments:
[1] = Toxicity in po dosed male Beagle dog; assay type: organism-based, Canis lupus familiaris; conditions: in vivo
[2] = Intrinsic clearance in rat hepatocytes assessed per 10^6 cells; assay type: ADME, cell-based, Hepatocyte; conditions: read-out: CLH
[3] = AUC (0 to 8 hrs) in C57BL/6J mouse thigh muscle at 50 mg/kg, po administered as single dose by LC-MS analysis; assay type: ADME, organism-based; design: dose 50 mg/kg, time < 8 hr, route oral
[4] = Half-life in rat hepatocytes; assay type: ADME, cell-based, Hepatocyte
[5] = Terminal half-life in C57BL/6J mouse thigh muscle at 50 mg/kg, po administered as single dose by LC-MS analysis; assay type: ADME, organism-based; conditions: read-out: beta t1/2 (converted)
[6] = Toxicity in BALB/c nude mouse assessed as effect on body weight at 25 mg/kg, po administered once daily starting from 17 days post inoculation and measured after 20 to 40 days post inoculation; assay type: organism-based; conditions: in vivo
[7] = Cmax in C57BL/6J mouse plasma at 50 mg/kg, po administered as single dose after 30 mins by LC-MS analysis; assay type: ADME, organism-based; design: dose 50 mg/kg, route oral
[8] = Intrinsic clearance in dog hepatocytes assessed per 10^6 cells; assay type: ADME, cell-based, Canis lupus familiaris, Hepatocyte; conditions: read-out: CLH
[9] = Cmax in C57BL/6J mouse brain at 50 mg/kg, po administered as single dose after 30 mins by LC-MS analysis; assay type: ADME, organism-based; design: dose 50 mg/kg, route oral
[10] = Metabolic stability in human liver microsomes assessed as compound remaining after 30 mins; assay type: ADME, Microsome; conditions: read-out: Stability
[11] = Metabolic stability in rat liver microsomes assessed as compound remaining after 30 mins; assay type: ADME, Microsome; conditions: read-out: Stability
[12] = AUC (0 to 8 hrs) at steady state in male Wistar rat at 1 mg/kg/day, po after 4 weeks; assay type: ADME, organism-based; design: dose 1 mg/kg/day, time < 8 hr, route oral; conditions: in vivo
[13] = AUC (0 to 8 hrs) at steady state in female Wistar rat at 0.5 mg/kg, po after 4 weeks; assay type: ADME, organism-based; design: time < 8 hr, dose 0.5 mg/kg, route oral; conditions: in vivo
[14] = Intrinsic clearance in human hepatocytes assessed per 10^6 cells; assay type: ADME, cell-based, Hepatocyte; conditions: read-out: CLH
[15] = Inhibition of Class 1 PI3K/mTOR in human A2058 cells assessed as reduction in Akt phosphorylation at Ser473 residue incubated for 1 hr by InCell Western assay; assay type: cell-based; conditions: A2058, 1 h
A2058 [16] = test: Inhibition of Class 1 PI3K/mTOR in human A2058 cells assessed as reduction in Akt phosphorylation incubated for 1 hr by InCell Western assay; assay type: cell-based
OVCAR-3 = test: Antitumor activity against human OVCAR3 cells xenografted in BALB/c nude mouse assessed as reduction in tumor growth at 25 mg/kg, po administered once daily starting from 17 days post inoculation and measured thrice per week; assay type: functional, organism-based
[17] = Metabolic stability in mouse liver microsomes assessed as compound remaining after 30 mins; assay type: ADME, Microsome; conditions: read-out: Stability
[18] = Clearance in C57BL/6J mouse plasma at 50 mg/kg, po administered as single dose by LC-MS analysis; assay type: ADME, organism-based
[19] = Tmax in C57BL/6J mouse plasma at 50 mg/kg, po administered as single dose by LC-MS analysis; assay type: ADME, organism-based
[20] = AUClast at steady state in male Beagle dog at 1 mg/kg/day, po after 4 weeks; assay type: ADME, organism-based, Canis lupus familiaris; conditions: in vivo
[21] = Tmax in C57BL/6J mouse thigh muscle at 50 mg/kg, po administered as single dose by LC-MS analysis; assay type: ADME, organism-based
[22] = Toxicity in po dosed male Wistar rat; assay type: organism-based; conditions: in vivo
[23] = Toxicity in po dosed female Wistar rat; assay type: organism-based; conditions: in vivo
A2058 [24] = test: Antiproliferative activity against human A2058 cells at 5 to 0.02 uM after 72 hrs by […] staining based assay; assay type: functional, cell-based
[25] = Terminal half-life in C57BL/6J mouse plasma at 50 mg/kg, po administered as single dose by LC-MS analysis; assay type: ADME, organism-based; conditions: read-out: beta t1/2 (converted)
[26] = AUC (0 to 8 hrs) in C57BL/6J mouse plasma at 50 mg/kg, po administered as single dose by LC-MS analysis; assay type: ADME, organism-based; design: dose 50 mg/kg, time < 8 hr, route oral
SK-OV-3 = test: Antiproliferative activity against human SKOV3 cells at 5 to 0.02 uM after 72 hrs by […] staining based assay; assay type: functional, cell-based
[27] = AUClast at steady state in female Beagle dog at 3 mg/kg/day, po after 4 weeks; assay type: ADME, organism-based, Canis lupus familiaris; conditions: in vivo
[28] = Half-life in mouse hepatocytes; assay type: ADME, cell-based, Hepatocyte
[29] = Cmax in C57BL/6J mouse thigh muscle at 50 mg/kg, po administered as single dose after 30 mins by LC-MS analysis; assay type: ADME, organism-based; design: dose 50 mg/kg, route oral
[30] = AUC (0 to 8 hrs) in C57BL/6J mouse brain at 50 mg/kg, po administered as single dose by LC-MS analysis; assay type: ADME, organism-based; design: dose 50 mg/kg, time < 8 hr, route oral
[31] = Intrinsic clearance in mouse hepatocytes assessed per 10^6 cells; assay type: ADME, cell-based, Hepatocyte; conditions: read-out: CLH
[32] = biological target: Phosphatidylinositol 4,5-bisphosphate 3-kinase catalytic subunit gamma isoform (Homo sapiens, UniProt P48736); test: Binding affinity to wild-type human partial length PIK3CG (S144 to A1102 residues) expressed in mammalian expression system by quantitative PCR based KINOMEscan assay
Phosphatidylinositol 4,5-bisphosphate 3-kinase catalytic subunit gamma isoform, sequence (P48736 whole entry, the tested form may be a part, canonical isoform): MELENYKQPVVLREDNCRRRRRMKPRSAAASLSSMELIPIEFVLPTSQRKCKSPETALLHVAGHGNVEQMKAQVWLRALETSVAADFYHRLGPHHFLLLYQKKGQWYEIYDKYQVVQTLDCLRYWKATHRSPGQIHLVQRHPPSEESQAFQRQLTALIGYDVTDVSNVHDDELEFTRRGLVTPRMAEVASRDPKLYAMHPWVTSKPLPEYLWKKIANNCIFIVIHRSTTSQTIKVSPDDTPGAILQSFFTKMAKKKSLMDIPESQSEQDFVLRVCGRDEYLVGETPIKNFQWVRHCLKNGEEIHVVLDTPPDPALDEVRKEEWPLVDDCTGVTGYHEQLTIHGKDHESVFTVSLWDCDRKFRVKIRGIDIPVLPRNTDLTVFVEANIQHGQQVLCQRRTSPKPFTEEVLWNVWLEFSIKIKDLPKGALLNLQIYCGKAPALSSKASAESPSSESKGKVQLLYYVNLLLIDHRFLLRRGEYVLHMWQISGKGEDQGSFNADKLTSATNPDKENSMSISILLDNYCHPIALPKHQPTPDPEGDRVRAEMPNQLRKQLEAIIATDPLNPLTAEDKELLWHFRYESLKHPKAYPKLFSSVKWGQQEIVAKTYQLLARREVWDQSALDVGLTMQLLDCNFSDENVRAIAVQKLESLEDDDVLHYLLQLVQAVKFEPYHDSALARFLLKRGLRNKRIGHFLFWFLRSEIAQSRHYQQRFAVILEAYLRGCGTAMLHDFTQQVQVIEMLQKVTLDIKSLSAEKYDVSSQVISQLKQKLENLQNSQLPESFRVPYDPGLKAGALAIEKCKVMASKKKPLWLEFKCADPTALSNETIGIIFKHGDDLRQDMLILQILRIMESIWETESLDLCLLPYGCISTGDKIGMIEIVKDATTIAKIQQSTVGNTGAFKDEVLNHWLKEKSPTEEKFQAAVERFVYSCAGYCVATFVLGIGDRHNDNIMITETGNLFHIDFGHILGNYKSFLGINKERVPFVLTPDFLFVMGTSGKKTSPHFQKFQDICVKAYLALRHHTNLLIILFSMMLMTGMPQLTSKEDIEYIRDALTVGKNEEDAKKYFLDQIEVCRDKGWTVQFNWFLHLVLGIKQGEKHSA

Mus musculus [33] = test: In vivo inhibition of Class 1 PI3K/mTOR in C57BL/6J mouse assessed as increase in plasma glucose level at 50 mg/kg, po administered as single dose after 2 hr by colorimetry based immunoassay; assay type: functional, organism-based
[34] = Half-life clearance in human hepatocytes; assay type: ADME, cell-based, Hepatocyte
[35] = biological target: PI3-kinase p110-alpha/p85-alpha (Homo sapiens) (UniProt P27986+P42336); test: Inhibition of Wortmannin covalent binding to N-terminal His-tagged recombinant human PI3K p110alpha/p85alpha Lys802 expressed in baculovirus expression system preincubated for 1 hr followed by Wortmannin addition and measured after 20 mins by SDS-PAGE based immunoblot assay
[36] = Terminal half-life in C57BL/6J mouse brain at 50 mg/kg, po administered as single dose by LC-MS analysis; assay type: ADME, organism-based; conditions: read-out: beta t1/2 (converted)
[37] = biological target: T1, Phosphatidylinositol 4,5-bisphosphate 3-kinase catalytic subunit alpha isoform (Homo sapiens, UniProt P42336); test: Displacement of Alexafluor labelled kinase tracer314 from recombinant N-terminal His6-tagged PI3K p110alpha (unknown origin) incubated for 1 hr by FRET-based LanthaScreen Eu kinase binding assay
T1 sequence (P42336 whole entry, canonical isoform): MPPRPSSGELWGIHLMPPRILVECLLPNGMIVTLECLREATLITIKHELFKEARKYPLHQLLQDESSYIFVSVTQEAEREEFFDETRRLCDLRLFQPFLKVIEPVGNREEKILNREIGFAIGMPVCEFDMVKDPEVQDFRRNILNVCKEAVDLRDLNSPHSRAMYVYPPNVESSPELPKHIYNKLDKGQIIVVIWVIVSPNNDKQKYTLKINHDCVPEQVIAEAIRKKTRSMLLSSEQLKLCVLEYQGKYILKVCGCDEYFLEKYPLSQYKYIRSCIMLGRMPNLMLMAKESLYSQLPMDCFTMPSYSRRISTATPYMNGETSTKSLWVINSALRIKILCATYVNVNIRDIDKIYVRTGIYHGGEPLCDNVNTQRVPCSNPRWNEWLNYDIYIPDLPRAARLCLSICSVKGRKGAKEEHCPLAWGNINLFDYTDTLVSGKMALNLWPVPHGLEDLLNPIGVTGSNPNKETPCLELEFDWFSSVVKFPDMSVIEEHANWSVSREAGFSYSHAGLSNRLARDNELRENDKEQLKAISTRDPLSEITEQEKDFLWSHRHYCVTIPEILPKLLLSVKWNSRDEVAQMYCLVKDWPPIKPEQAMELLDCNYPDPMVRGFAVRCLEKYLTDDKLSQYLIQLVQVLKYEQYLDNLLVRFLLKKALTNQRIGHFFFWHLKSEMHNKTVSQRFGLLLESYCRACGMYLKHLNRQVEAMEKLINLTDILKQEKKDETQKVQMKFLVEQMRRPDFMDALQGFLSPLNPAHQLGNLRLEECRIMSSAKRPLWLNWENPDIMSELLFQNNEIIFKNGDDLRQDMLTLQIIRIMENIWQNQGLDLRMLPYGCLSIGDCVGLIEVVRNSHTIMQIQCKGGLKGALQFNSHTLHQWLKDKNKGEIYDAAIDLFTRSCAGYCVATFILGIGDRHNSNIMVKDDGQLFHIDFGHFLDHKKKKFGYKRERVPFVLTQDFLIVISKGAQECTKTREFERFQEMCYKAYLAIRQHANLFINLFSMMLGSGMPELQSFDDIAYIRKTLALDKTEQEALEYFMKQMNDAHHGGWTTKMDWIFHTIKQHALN

[38] = Tmax in C57BL/6J mouse brain at 50 mg/kg, po administered as single dose by LC-MS analysis; assay type: ADME, organism-based
[39] = biological target: Serine/threonine-protein kinase mTOR (Homo sapiens, UniProt P42345); test: Displacement of Alexafluor labelled kinase tracer314 from recombinant human C-terminal GST-tagged mTOR (1360 to 2549 amino acids) expressed in insect cells incubated for 1 hr by FRET-based LanthaScreen Eu kinase binding assay
[40] = Fraction unbound in rat brain; assay type: ADME, tissue-based
[41] = biological target: T1, Phosphatidylinositol 4,5-bisphosphate 3-kinase catalytic subunit alpha isoform; test: Binding affinity to wild-type human partial length PIK3CA (R108 to N1068 residues) expressed in mammalian expression system by quantitative PCR based KINOMEscan assay
[42] = Half-life in dog hepatocytes; assay type: ADME, cell-based, Canis lupus familiaris, Hepatocyte
cells = conditions: Homo sapiens, A2058, 1 h
Description: Inhibition of Class 1 PI3K/mTOR in human A2058 cells assessed as reduction in S6 phosphorylation at Ser235/236 residue incubated for 1 hr by InCell Western assay

Mus musculus [43] = test: In vivo inhibition of Class 1 PI3K/mTOR in C57BL/6J mouse assessed as increase in plasma glucose level at 50 mg/kg, po administered as single dose after 10 mins to 1 hr by colorimetric assay; assay type: functional, organism-based
[44] = Metabolic stability in dog liver microsomes assessed as compound remaining after 30 mins; assay type: ADME, Canis lupus familiaris, Microsome; conditions: read-out: Stability
Homo sapiens = species: Homo sapiens; test: Inhibition of Class 1 PI3K/mTOR in human SKOV3 cells assessed as reduction in Akt phosphorylation at Ser473 residue incubated for 1 hr by InCell Western assay; assay type: cell-based
A2058 [45] = test: Inhibition of Class 1 PI3K/mTOR in human A2058 cells assessed as reduction in p70S6K phosphorylation incubated for 1 hr by InCell Western assay; assay type: cell-based
A2058 [46] = test: Inhibition of Class 1 PI3K/mTOR in human A2058 cells assessed as reduction in GSK3 phosphorylation incubated for 1 hr by InCell Western assay; assay type: cell-based
[47] = Toxicity in po dosed female Beagle dog; assay type: organism-based, Canis lupus familiaris; conditions: in vivo

## C[C@H]1COCCN1c1nc(-c2cnc(N)cc2C(F)F)nc(N2CCOCC2)n1
[1]
  NOAEL: 1 mg/kg/day
[2]
  hepatocyte CLint: 7 µL/min/1e6 cells
[3]
  AUC(0-t) at 8 h: 39200 ng·h/mL
[4]
  half-life: 3.2 h
[5]
  half-life: 3.5 h
[6]
  Activity: Non-Toxic
[7]
  Cmax: 7800 ng/mL
[8]
  hepatocyte CLint: 10 µL/min/1e6 cells
[9]
  Cmax: 12600 ng/mL
[10]
  remaining at 0.5 h: 81.5%
[11]
  remaining at 0.5 h: 106%
[12]
  AUC at 8 h: 335 ng·h/mL
[13]
  AUC at 8 h: 599 ng·h/mL
[14]
  hepatocyte CLint: 6 µL/min/1e6 cells
[15]
  IC50: 62.2 nM
A2058 [16]
  inhibition: Active
OVCAR-3
  Activity: Active
[17]
  remaining at 0.5 h: 73.2%
[18]
  CL/F: 20.9 mL/min/kg
[19]
  Tmax: 0.5 h
[20]
  AUC(0-t) at 672 h: 127 ng·h/mL
[21]
  Tmax: 0.5 h
[22]
  NOAEL: 1 mg/kg/day
[23]
  NOAEL: 0.5 mg/kg
A2058 [24]
  Activity: Active
[25]
  half-life: 4.7 h
[26]
  AUC(0-t) at 8 h: 27900 ng·h/mL
SK-OV-3
  Activity: Active
[27]
  AUC(0-t) at 672 h: 1070 ng·h/mL
[28]
  half-life: 2.37 h
[29]
  Cmax: 11900 ng/mL
[30]
  AUC(0-t) at 8 h: 46500 ng·h/mL
[31]
  hepatocyte CLint: 11 µL/min/1e6 cells
[32]
  Kd: 10 nM
Mus musculus [33]
  inhibition: Active
[34]
  half-life: 4.17 h
[35]
  inhibition: Active
[36]
  half-life: 4.8 h
[37]
  Ki: 11.1 nM
[38]
  Tmax: 0.5 h
[39]
  Ki: 7.4 nM
[40]
  fraction unbound: 0.08
[41]
  Kd: 0.84 nM
[42]
  half-life: 2.37 h
cells
  IC50: 61.9 nM
Mus musculus [43]
  inhibition: Active
[44]
  remaining at 0.5 h: 97.4%
Homo sapiens
  inhibition: Active
A2058 [45]
  inhibition: Active
A2058 [46]
  inhibition: Active
[47]
  NOAEL: 3 mg/kg/day
